The results in this text go back to patent publication US10336792B2, “Antimicrobial peptide dendrimers” (priority 2014, dated 2019).

Data set [1] concerns Bacillus subtilis (strain BR151). The format is cell-based. The conditions noted are these: LB medium. The method, boiled down: (§1)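 Broth microdilution MIC in LB; overnight cultures diluted to OD600 0.001 and mixed 1:1 with ⅔-serially diluted samples (stock 1 mg mL^−1 in H2O), 37° C for 18-24 h. MTT (0.1%) added; MIC read by eye as lowest concentration inhibiting visible growth (yellow).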

The test system of data set [2] is Escherichia coli (strain DH5α). The data set is classed as cell-based. The conditions noted are these: LB medium. The method, boiled down: as §1
For data set [3], the system named is human red blood cells (hRBC). Description: Haemolysis assay, minimal haemolytic concentration (MHC). The data set is classed as cell-based. The following applies: hRBC in PBS pH 7.4, 4 h, room temperature. How it is done:
To determine the minimal haemolytic concentration (MHC) stock solutions of 8 mg/mL of the peptide dendrimers in H2O were prepared and 50 μL were diluted serially by ½ in 50 μL PBS (pH 7.4) in 96-well plate (Cornstar or Nunc, polystyrene, untreated). Human red blood cells (hRBC) were obtained by centrifuging 1.5 mL of whole blood from friendly donors at 3000 rpm for 15 minutes. Plasma was discarded and the pellet was re-suspended in a 15 mL falcon tube up to 5 mL of PBS. The washing was repeated three times and the remaining pellet was re-suspended in 10 mL of PBS at a final hRBC concentration of 5%. The hRBC suspension (50 μL) was added to each well and the plate was incubated at room temperature for 4 hours. Minimal haemolytic concentration (MHC) end points were determined by visual inspection of the wells after the incubation period. Controls on each plate included a blank medium control (50 μl PBS+50 μl of hRBC suspension) and a haemolytic activity control (mQ-deionized water 50 μL+50 μL hRBC suspension).
MIC (minimal inhibitory concentration) and MHC (minimal haemolytic concentration, determined on human red blood cells (hRBC)) values are given in μg/mL. When no detectable haemolytic activity was observed, the last measured concentration was used for calculation of the therapeutic index. TI (therapeutic index)=MHC (μg/ml)/geometric mean of MIC (μg/ml). Larger values indicate greater antimicrobial specificity.

Data set [4] can be described thus: Proteolytic stability with human serum. The format is in vitro ADME. The following applies: 100 μM peptide, human serum diluted with DMEM, 37 °C, up to 24 h. As to the method: Peptides and peptide dendrimers were prepared as 200 μM stock solution in PBS. 25% Human Serum (diluted with DMEM) was centrifuged at for 15 min at 14000 rpm to remove the lipids and supernatant was collected and incubated for 15 min at 37° C. Proteolysis was initiated upon addition of 50 μL of the test peptide or peptide dendrimer to 50 μL of serum and shaking at 37° C. Final peptide concentration is 100 μM. Reaction mixtures were analyzed after 0, 1, 6, 24 h by addition of ice-cold 10% Trichloroacetic acid (TCA) to precipitate serum proteins. The supernantant was collected for each sample after centrifugation at 14000 rpm for 15 min. and evaporated with a speedvac. After dissolving the solid in 100 μL mQ-H2O they were analyzed by RP-UPLC (flow rate: 1.2 mL/min. gradient: A/D=100/0 to 0/100 in 7.5 min). Conversions of the remaining peptide and peptide dendrimers were calculated by integration of the absorbance at 214 nm by using Chromeleon software.
The peptides were mixed with human serum (previously diluted with DMEM) to a final peptide concentration of 100 μM to determine the stability of AMPDs toward proteases and incubated at 37° C. for 0, 1, 6, or 24 hours. After precipitation of proteins with TCA, the solution was analyzed by analytical RP-UPLC. […] AMPDs MSt-114, MSt-136, MSt-138, MSt-139, MSt-140 and MSt-176 were also checked for their stability. […]

The test system of data set [5] is P. aeruginosa PAO1 bacterial suspension. Description: Detection of peptide in the presence of bacteria. The format is in vitro ADME, Pseudomonas aeruginosa. The conditions noted are these: 100 μM peptide, P. aeruginosa PAO1 in LB, 37 °C, up to 24 h. As to the method: Peptides and peptide dendrimers were prepared as 200 μM stock solution in H2O. A colony of bacteria was grown in LB-medium overnight at 37° C. The concentration was quantified by measuring absorbance at 600 nm and diluted to OD600=0.2. Degradation was initiated upon addition of 50 μL of the test peptide or peptide dendrimer to 50 μL of the bacterial suspension and shaking at 37° C. Final peptide concentration is 100 μM and final concentration of bacteria is OD600=0.1 (1×10^8 CFU/mL). Reaction mixtures were analyzed after 0, 1, 6, 9, 24 h by heating up to 95° C. for 5 min. followed by centrifugation for 15 min. at 14000 rpm. 50 μL of the supernantant were collected for each sample and 50 μL A were added giving a concentration of 50 μM. 5 μL of 4-Hydroxybenzoic acid (standard) were added before samples were analyzed by RP-UPLC (flow rate: 1.2 mL/min. gradient: A/D=100/0 to 0/100 in 7.5 min). Conversions of the remaining peptide and peptide dendrimers were calculated by integration of the absorbance at 214 nm by using Chromeleon software.
Bacteria were grown in LB overnight and diluted to OD600=0.2. After addition of the peptides to a concentration of 100 μM the samples were incubated for 0, 1, 6, 9, 24 hours at 37° C. After heating the suspension to 95° C. for 5 min and centrifugation the solution was subjected to UPLC and the remaining peptide was analyzed by using Chromeleon software.

Data set [6] relates to Pseudomonas aeruginosa (strain PA01). Description: microbe, parasite or virus in culture. The conditions noted are these: Pseudomonas aeruginosa, PAO1; LB medium, serial 2/3 dilution, 37 °C, 18-24 h; read-out: MIC P. aeruginosa PAO1. The data set is classed as cell-based. The procedure, abridged: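 Broth microdilution MIC against P. aeruginosa PAO1 in LB: peptides serially diluted by ⅔, bacteria added at OD600 0.001 and incubated 18–24 h at 37 °C. MTT added; MIC is the lowest concentration preventing visible growth.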

Data set [7] shares this test system. The data set is classed as cell-based. The following applies: 25 μg/mL; 0, 1, 3, 6, 8, 24 h. As to the method: Cell viability was assayed against Pseudomonas aeruginosa (strain PA01). A colony of bacteria was grown in LB-medium overnight at 37° C. The concentration was quantified by measuring absorbance at 600 nm and diluted to OD600=0.1 (1×10^8 CFU/mL). The samples were prepared as stock solutions of 1 mg mL^−1 in H2O and diluted in LB to a concentration of 50 μg/mL in a 96-well microtiterplate (TPP, untreated). The sample solutions (50 μL) were mixed with the diluted bacterial suspension with an OD600 nm of 0.001 (50 μL). […] The plates were incubated at 37° C. for 1, 3, 6, 8 and 24 h. Each time point was assayed on a separate plate. For each test, two columns of the plate were kept for sterility control (SC, broth only) and growth control (GC, broth with bacterial inoculums, no antibiotics). After incubation 15 μL of WST-8 working solution (3.31 mg/mL WST-8 (Ochem Incorporation), 0.074 mg/mL PES (phenazine ethosulfate)) was added to each well and cells were incubated at 37° C. until GC had desired value. After the reaction took place, the final absorbance was read at 450 nm. For calculations, the value of the GC was set to 100% cell viability and the value of the negative control (no bacteria, SC) was set to 0% cell viability. […]
In order to determine the killing kinetics of AMPDs the amount of living bacteria was measured as a function of time after incubation with the AMPDs. […]

The nature of data set [8]: 5(6)-Carboxyfluorescein leakage from lipid vesicles. The following applies: 10 mM TRIS, 107 mM NaCl, pH 7.4; peptide added at 50 s. How it is done:
(§2) Preparation A thin lipid film was prepared by evaporating a solution of 25 mg Egg PC or Egg PG in 1 mL MeOH/CHCl3 1/1 on a rotary evaporator (rt) and then in vacuo overnight. The resulting film was hydrated with 1 mL buffer (50 mM CF, 10 mM TIRS, 10 mM NaCl, pH 7.4) for 30 min, subjected to freeze-thaw cycles (7×) and extrusion (15×) through a polycarbonate membrane (pore size 100 nm). Extravesicular components were removed by gel filtration (Sephadex G-50) with 10 mM TRIS, 107 mM NaCl, pH 7.4. Final conditions: ˜2.5 mM Egg PC or Egg PG; inside: 50 mM CF, 10 mM TIRS, 10 mM NaCl, pH 7.4; outside: 10 mM TRIS, 107 mM NaCl, pH 7.4.
(§3) Experiment Egg PC or Egg PG stock solutions (37.5 μL) were diluted with a buffer (10 mM TRIS, 107 mM NaCl, pH 7.4) and placed in a thermostated fluorescence cuvette (25° C.) and gently stirred (total volume in the cuvette ˜3000 μL; final lipid concentration ˜31.25 μM). CF efflux was monitored at λem 517 nm (λex 492 nm) as a function of time after addition of 20 μL of peptide dendrimer in buffer (10 mM TRIS, 107 mM NaCl, pH 7.4) with final concentrations of 1, 5, 7.5, 10, 15, 20, 25, 30 μg/mL at t=50 s and 1.2% trition X-100 (30 μL, 0.012% final concentration) at t=300 s. Fluorescence intensities were normalized to fractional emission intensity I(t) using I(t)=(It−I0)/(I∞−I0) where I0 It at peptide dendrimer addition, I∞=It at saturation of lysis.
Bacterial membranes contain relatively large amounts of exposed anionic lipids, while the outer leaflet of the membranes of plants and animals is composed mainly of lipids with no net charge. The charge composition of such membranes can be mimicked with phospholipid vesicles. Large unilamellar vesicles (LUVs) composed of the neutral phospholipid with PC (phosphatidyl choline) or with PG (phosphatidyl glycerol) with negative charges were prepared encapsulating 5(6)-carboxyfluorescein (CF). […] The higher the concentration of MSt-112 the higher is the CF leakage (FIG. 6A). […] Overall the active AMPDs interact with the negatively charged membrane and release the CF.

Assay in data set [9]: as above
The conditions noted are these: 10 mM TRIS, 107 mM NaCl, pH 7.4; peptide added at 50 s. How it is done: as §2, §3
The source holds these as a separate data set.

Molecules are shown by their SMILES. Values after ≈ are worked out from the molar mass of the structure shown. Residues, ends and D or L forms follow the SMILES beside them. Some results are limits rather than exact numbers.

Turning to `CC(C)C[C@H](NC(=O)[C@H](CC(C)C)NC(=O)[C@H](CCCCN)NC(=O)[C@H](C)NC(=O)[C@H](CC(C)C)NC(=O)[C@H](CCCCN)NC(=O)[C@H](CCCCN)NC(=O)[C@H](CC(C)C)NC(=O)[C@H](C)NC(=O)[C@H](CCCCN)NC(=O)[C@H](CCCCN)NC(=O)[C@H](Cc1ccc(O)cc1)NC(=O)[C@@H](N)CCCCN)C(N)=O` [RHe-9, (KYKKALKKLAKLL), reference compound] (H-KYKKALKKLAKLL-NH2), in data set [1], the “MIC B. subtilis BR151” value was 4 µg/mL (≈ 2.59 µM). Besides, in [2], the “MIC E. coli DH5α” value is less than 1 µg/mL. The “MHC (minimal haemolytic concentration)” value in data set [3] is reported as “not haemolytic”. Further, in data set [4], the “Stability in human serum (remaining peptide signal, RP-UPLC)” value is reported as “completely disappeared”. Further, the “Stability in bacterial suspension (remaining peptide, UPLC)” value in data set [5] is listed as “not detectable after 9 hours”.

For `NC[C@H]1O[C@H](O[C@H]2[C@H](O)[C@@H](O[C@H]3O[C@H](CO)[C@@H](O)[C@H](N)[C@H]3O)[C@H](N)C[C@@H]2N)[C@H](N)C[C@@H]1O` [Tobramycin], in [6], the MIC was found to be 0.5 µg/mL (≈ 1.07 µM). In addition, in [7], the “killing kinetics (bacterial survival over 24 hours)” value is listed as “kill P. aeruginosa immediately”. In data set [8], the “CF leakage from phosphatidylglycerol LUVs” value was “do not show release of CF”. Further, the “CF leakage from phosphatidylcholine LUVs” value in data set [9] is “no CF release”.
